Test results: patent publication US10857167B2, “Use of oligosaccharide compositions to enhance weight gain” (Children's Hospital Medical Center, priority 2015, dated 2020)
Entries after “also recorded” stand apart in the source; their conditions may differ.

Legend:
Type in all cases: in vivo, mouse
[1] = test system: TFF3, MUC2, DEFA5, ZO-1, HSPA1A, Reg3b, Reg3g; assay: Expression of genes relative to β-Actin in pre-operative and post-ICR mice; details: post-ICR with 2′ FL supplementation
[2] = test system: environmental enteropathy growth model; assay: Environmental enteropathy growth model (control diet or regional-based diet); details: 2.5 g/L in drinking water from 4 weeks of age
Description: FIG. 41 is a scheme showing a 2′-FL experiment: Environmental Enteropathy. All dams were placed on Regional-based Diet when their pups were 10 days old. At weaning (3 weeks of age), pups were placed on either control diet (CD) or continued on regional-based diet (RBD), which is a malnutrition diet lacking nutrients. At 4 weeks of age, the pups were given either plain drinking water or 2-FL (2.5 g/L) in sipper sacs. Sipper sacs were changed and weighed every other day. Mice and food were weighed twice a week. Stool was collected at weaning, 6 weeks of age, and 8 weeks of age. Mice were sacrificed at 8 weeks of age. To further support the findings of the beneficial effect of 2′ FL supplementation on infant growth, another experiment as outlined in FIG. 41 was performed. All dams were placed on Regional-based Diet when their pups were 10 days old. At weaning (3 wks of age), pups were placed on either control diet (CD) or continued on regional-based diet (RBD), which is a malnutrition diet lacking nutrients. At 4 wks of age, the pups were given either plain drinking water or 2-FL (2.5 g/L) in sipper sacs. Sipper sacs were changed and weighed every other day. Mice and food were weighed twice a week. Stool was collected at weaning, 6 weeks of age, and 8 weeks of age. Mice were sacrificed at 8 weeks of age.

[3] = test system: small bowel of mice after ileocecal resection (ICR); assay: Histologic markers of adaptation (villus height, crypt depth, bowel circumference, intestinal length) after ICR; details: for crypt depth, median / intestinal length (corrected), median / small bowel circumference, median / villus height, median: 2′-FL supplemented ICR subgroup, interquartile range in brackets
Method: At the time of resection, tissue was obtained to prepare for histologic examination (FIG. 12). No differences in measurements of villus height, crypt depth, and bowel circumference were found at the time of resection. […] Crypts of both post-operative control and 2′ FL supplemented groups were deeper than those of pre-operative tissue. […] Only weights were obtained from non-operated control animals. Resected intestine from operated animals was measured for length then the site of small bowel transection was processed for small bowel contents, histology, and RNA. At the time of experimental completion, small bowel immediately proximal to the site of anastomosis was also harvested for small bowel contents, histology, and RNA from the operated group. Small bowel tissue samples for histology were cut in the longitudinal and transverse section, fixed with 4% paraformaldehyde, mounted in paraffin, and stained with hemotoxylin and eosin. Villous height, crypt depth, and bowel circumference were measured in a blinded manor. At least 10 well-oriented villus and crypt domains were assessed for each sample and two samples were averaged per mouse. The serosal circumference was measured twice per sample with two samples per mouse. The average value per mouse was determined. Measurements were performed using the Nikon Ti-Eclipse with NIS Element Advanced Research version 4.20 (Nikon Inc, NY). […] Intestinal length was compared across groups using the Wilcoxon rank-sum test as values were not normally distributed. Histologic count data was averaged per mouse across two samples and compared by the Wilcoxon rank-sum test. Weight data was analyzed using Stata version 13.0 (StataCorp LP, TX). Remaining morphometric and histologic data were analyzed using GraphPad Prism version 5 (GraphPad Software Inc, CA).

C[C@@H]1O[C@@H](O[C@H]2[C@H](O[C@H]3[C@H](O)[C@@H](O)C(O)O[C@@H]3CO)O[C@H](CO)[C@H](O)[C@@H]2O)[C@@H](O)[C@H](O)[C@@H]1O (some centres unmarked) [2′-FL, 2′-fucosyllactose]
expression of genes TFF3, DEFA5, HSPA1A, Reg3b, and Reg3g relative to β-Actin [1]: increased expression | growth (weight change over time) ([2]; control diet): increased growth | growth (weight change over time) ([2]; regional based diet (malnutrition diet)): did not increase growth | crypt depth, median ([3]; postoperative day 21): 89 μm | intestinal length (corrected), median ([3]; postoperative day 21): 35.5 cm | small bowel circumference, median ([3]; postoperative day 21): 7,133 μm | villus height, median ([3]; postoperative day 21): 346 μm | crypt depth, median ([3]; postoperative day 56): 106 μm | intestinal length (corrected), median ([3]; postoperative day 56): 38.5 cm | small bowel circumference, median ([3]; postoperative day 56): 9,671 μm | villus height, median ([3]; postoperative day 56): 405 μm | histologic markers of adaptation (crypt depth, villus height, bowel circumference) compared to control ([3]; point of weight divergence, 21 days post-ICR): did not alter | crypt depth compared to control ICR ([3]; postoperative day 21): no difference | villus height compared to control ICR ([3]; postoperative day 21): no difference | intestinal length compared to control ICR ([3]; postoperative day 21 and day 56): no difference | villus height compared to control ICR ([3]; postoperative day 56): appeared longer; also recorded: trended toward a greater height | crypt depth compared to control ICR ([3]; postoperative day 56 (8 weeks)): increased; also recorded: significantly deeper | crypt depth compared to control ICR ([3]; postoperative day 56 (8 weeks), listed as 2′ Fl): significantly greater | crypt depth compared to control ICR ([3]; postoperative day 56 (8 weeks), listed as 2′FL): significantly greater | bowel circumference compared to control ICR ([3]; postoperative day 56 (Example 2)): no significant difference | villus height compared to control ICR ([3]; postoperative day 56, listed as 2′-Fl): appeared longer | duration of the acute histologic response to ICR compared to control ([3]; postoperative day 56 plotted alongside day 21): sustains the acute histologic response over a longer time period; also recorded: sustained the acute increases | small bowel circumference compared to control ICR ([3]; postoperative days 21 or 56): no statistical difference
